In ChEMBL document CHEMBL5518196, “Discovery of potent thiazolidin-4-one sulfone derivatives for inhibition of proliferation of osteosarcoma in vitro and in vivo” (Eur J Med Chem, 2024):

Tested on: HOS-TE85
Assay: Antiproliferative activity against human MNNG/HOS cells assessed as inhibition of cell growth incubated for 72 hrs by CCK8 assay
Format: functional, cell-based
Settings: HOS-TE85, 72 h

Row | SMILES | IC50 [nM]
1 | Cc1ccnc(N2C(=O)C[S+]([O-])C2c2cccc(C(=O)NCCCCc3ccccc3)c2)c1 (configuration not stated) | 74
2 | CCCCNC(=O)c1cccc(C2N(c3ccccn3)C(=O)CS2(=O)=O)n1 (configuration not stated) | 420
3 | O=C(NCCOCc1ccccc1)c1cccc(C2N(c3ccccn3)C(=O)CS2(=O)=O)n1 (configuration not stated) | > 1000
4 | O=C(NCCCCc1ccccc1)c1cc(C(=O)NCCCCc2ccccc2)cc(C2N(c3ccccc3)C(=O)CS2(=O)=O)c1 (configuration not stated) | > 10000
5 | COC(=O)CCCCNC(=O)c1cccc(C2N(c3ccccn3)C(=O)CS2(=O)=O)n1 (configuration not stated) | 225
6 | Cc1ccnc(N2C(=O)CS(=O)(=O)C2c2cccc(C(=O)NCCCCn3cccn3)n2)c1 (configuration not stated) | 924
7 | O=C(NCCCCc1ccccc1)c1cccc(C2N(c3cccc(F)c3)C(=O)CS2(=O)=O)n1 (configuration not stated) | 17
8 | Cc1ccnc(N2C(=O)C[S+]([O-])C2c2cccc(C(=O)NCCCCn3cccn3)n2)c1 (configuration not stated) | 8290
9 | Cc1cc(N2C(=O)C[S+]([O-])C2c2cccc(C(=O)NCCCCc3ccccc3)c2)no1 (configuration not stated) | 354
10 | O=C(NCCCCc1ccccc1)c1ccc(C2N(c3ccccc3)C(=O)CS2(=O)=O)cc1 (configuration not stated) | > 10000
11 | COCCCCNC(=O)c1cccc([C@@H]2N(c3ncccc3OC)C(=O)CS2(=O)=O)n1 | 113
12 | Cc1ccnc(N2C(=O)C[S+]([O-])C2c2cccc(C(=O)NCCCCn3cccn3)c2)c1 (configuration not stated) | 3120
13 | CCCCNC(=O)c1cccc(C2N(c3ccccc3)C(=O)CS2(=O)=O)c1 (configuration not stated) | > 10000
14 | O=C(NCCCCc1ccccc1)c1cccc(C2N(C3CCOCC3)C(=O)CS2(=O)=O)c1 (configuration not stated) | > 10000
15 | O=C(NCCCCc1ccccc1)c1cccc(C2N(C3CC3)C(=O)CS2(=O)=O)c1 (configuration not stated) | > 10000
16 | O=C(NCCCCc1ccccc1)c1cccc(C2N(c3ccc4c(c3)OCO4)C(=O)CS2(=O)=O)c1 (configuration not stated) | 73
17 | O=C(NCCCCc1ccccc1)c1cccc(C2N(c3ccccc3)C(=O)CS2(=O)=O)c1 (configuration not stated) | 150
18 | O=C(NCCCC(=O)N1CCCC1)c1cccc(C2N(c3ccccn3)C(=O)CS2(=O)=O)n1 (configuration not stated) | > 1000
19 | COc1cccnc1N1C(=O)CS(=O)(=O)C1c1cccc(C(=O)NCCCCc2ccccc2)c1 (configuration not stated) | 16
20 | O=C(NCCCCc1ccccc1)c1cccc(C2N(c3ccc(F)cn3)C(=O)CS2(=O)=O)n1 (configuration not stated) | 20
21 | COc1ccnc(N2C(=O)CS(=O)(=O)C2c2cccc(C(=O)NCCCCc3ccccc3)n2)c1 (configuration not stated) | 178
22 | O=C(NCCCCc1ccccc1)c1cccc(C2N(c3ccccc3)C(=O)C[S+]2[O-])c1 (configuration not stated) | 3110
23 | COCCCCNC(=O)c1cccc(C2N(c3ccc(F)cn3)C(=O)CS2(=O)=O)n1 (configuration not stated) | 283

Row | SMILES | IC50 [nM]
24 | COCCCCNC(=O)c1cccc(C2N(c3ccc(C)cn3)C(=O)CS2(=O)=O)n1 (configuration not stated) | 262
25 | O=C(CCCNC(=O)c1cccc(C2N(c3ccccn3)C(=O)CS2(=O)=O)n1)Nc1ccccc1 (configuration not stated) | > 1000
26 | COCCCCNC(=O)c1cccc(C2N(c3ncccc3C)C(=O)CS2(=O)=O)n1 (configuration not stated) | 702
27 | O=C1CS(=O)(=O)C(c2cccc(C(=O)NCCCCc3ccccc3)c2)N1 (configuration not stated) | > 10000
28 | COc1ccccc1N1C(=O)CS(=O)(=O)C1c1cccc(C(=O)NCCCCc2ccccc2)n1 (configuration not stated) | 4
29 | O=C(NCCCCc1ccccc1)c1cccc(C2N(c3cccc(F)n3)C(=O)CS2(=O)=O)n1 (configuration not stated) | > 1000
30 | O=C(NCCCCc1ccccc1)c1cccc(C2N(c3cccc(F)c3)C(=O)CS2(=O)=O)c1 (configuration not stated) | 103
31 | O=C(NCCCCc1ccccc1)c1cccc(C2N(c3cccc4cccnc34)C(=O)CS2(=O)=O)c1 (configuration not stated) | 25
32 | COc1cccc(N2C(=O)CS(=O)(=O)C2N(CCCCc2ccccc2)C(=O)c2ccccc2)c1 (configuration not stated) | 68
33 | COC(=O)CCCNC(=O)c1cccc(C2N(c3ccccn3)C(=O)CS2(=O)=O)n1 (configuration not stated) | 142
34 | O=C(NCCCCc1ccccc1)c1cccc(C2N(c3ccc[n+]([O-])c3)C(=O)CS2(=O)=O)c1 (configuration not stated) | > 10000
35 | Cc1cccc(N2C(=O)CS(=O)(=O)C2c2cccc(C(=O)NCCCCc3ccccc3)c2)c1 (configuration not stated) | 230
36 | Cc1cc(N2C(=O)CS(=O)(=O)C2c2cccc(C(=O)NCCCCc3ccccc3)c2)no1 (configuration not stated) | 447
37 | O=C(NCCCCc1ccccc1)c1ccc(C2N(c3ccccc3)C(=O)CS2(=O)=O)o1 (configuration not stated) | 41
38 | Cc1ccnc(N2C(=O)CS(=O)(=O)C2c2cccc(C(=O)NCCCCc3ccccc3)n2)c1 (configuration not stated) | 33
39 | O=C(NCCCCc1ccccc1)c1cc(-c2ccccc2)cc(C2N(c3ccccc3)C(=O)CS2(=O)=O)c1 (configuration not stated) | > 10000
40 | COCCCCNC(=O)c1cccc([C@H]2N(c3ccc(F)cn3)C(=O)CS2(=O)=O)n1 | 137
41 | O=C(NCCCCc1ccccc1)c1cccc(C2N(c3ccccc3)C(=O)CS2(=O)=O)n1 (configuration not stated) | > 10000
42 | O=C(NCCCCc1ccccc1)c1cccc(C2N(C3CCCCC3)C(=O)CS2(=O)=O)c1 (configuration not stated) | 2020
43 | COC(=O)c1cc(C(=O)NCCCCc2ccccc2)cc(C2N(c3ccccc3)C(=O)CS2(=O)=O)c1 (configuration not stated) | 60
44 | C#Cc1cc(C(=O)NCCCCc2ccccc2)cc(C2N(c3ccccn3)C(=O)CS2(=O)=O)c1 (configuration not stated) | 32
45 | O=C(NCCCCc1ccccc1)c1cccc(C2N(c3cccc(Cl)c3)C(=O)CS2(=O)=O)n1 (configuration not stated) | 430
46 | O=C(NCCCCO)c1cccc(C2N(c3ccccn3)C(=O)CS2(=O)=O)n1 (configuration not stated) | > 1000

Row | SMILES | IC50 [nM]
47 | O=C(NCCCCc1ccccc1)c1cccc(C2N(c3ncccc3O)C(=O)CS2(=O)=O)n1 (configuration not stated) | 45
48 | O=C(NCCCCc1ccccc1)c1cccc(C2N(c3cc(Cl)ccn3)C(=O)CS2(=O)=O)n1 (configuration not stated) | 469
49 | O=C(NCCCCc1ccccc1)c1cccc(C2N(c3cccc(F)c3)C(=O)C[S+]2[O-])c1 (configuration not stated) | 83
50 | O=C(NCCCCc1ccccc1)c1cccc(C2N(CCc3ccccc3)C(=O)C[S+]2[O-])c1 (configuration not stated) | > 10000
51 | Cc1ccnc(N2C(=O)CS(=O)(=O)C2c2cccc(C(=O)NCCCCc3ccccc3)c2)c1 (configuration not stated) | 71
52 | Cc1ccnc(N2C(=O)CS[C@H]2c2cccc(C(=O)NCCCCn3cccn3)c2)c1 | > 10000
53 | O=C(NCCCCc1ccccc1)c1cccc(C2N(c3ccccn3)C(=O)CS2(=O)=O)c1 (configuration not stated) | 25
54 | O=C(NCCCCc1ccccc1)c1cccc(C2N(c3ccc4ccccc4c3)C(=O)CS2(=O)=O)c1 (configuration not stated) | 474
55 | COCCCCNC(=O)c1cccc([C@H]2N(c3ncccc3OC)C(=O)CS2(=O)=O)n1 | 71
56 | Cc1cccc(N2C(=O)C[S+]([O-])C2c2cccc(C(=O)NCCCCc3ccccc3)c2)c1 (configuration not stated) | 177
57 | Cc1cccnc1N1C(=O)CS(=O)(=O)C1c1cccc(C(=O)NCCCCc2ccccc2)n1 (configuration not stated) | 50
58 | O=C(NCCCCc1ccccc1)c1cccc(C2N(c3ccccc3)C(=O)C[S+]2[O-])n1 (configuration not stated) | 260
59 | CC(C)(C)OCCCCNC(=O)c1cccc(C2N(c3ccccn3)C(=O)CS2(=O)=O)n1 (configuration not stated) | > 1000
60 | O=C(NCCCCc1ccccc1)c1cccc(C2N(c3cccc(Cl)c3)C(=O)CS2(=O)=O)c1 (configuration not stated) | 75
61 | CCN(CC)C(=O)CCCNC(=O)c1cccc(C2N(c3ccccn3)C(=O)CS2(=O)=O)n1 (configuration not stated) | > 1000
62 | O=C(O)c1cc(C(=O)NCCCCc2ccccc2)cc(C2N(c3ccccc3)C(=O)CS2(=O)=O)c1 (configuration not stated) | > 10000
63 | O=C(NCCCCc1ccccc1)c1cccc(C2N(Cc3ccccc3)C(=O)C[S+]2[O-])c1 (configuration not stated) | > 10000
64 | O=C(CCCNC(=O)c1cccc(C2N(c3ccccn3)C(=O)CS2(=O)=O)n1)Nc1ccc(F)cc1 (configuration not stated) | > 1000
65 | C#Cc1cc(C(=O)NCCCCc2ccccc2)cc(C2N(c3ccccc3)C(=O)CS2(=O)=O)c1 (configuration not stated) | 9
66 | COCCCNC(=O)c1cccc(C2N(c3ccccn3)C(=O)CS2(=O)=O)n1 (configuration not stated) | 926
67 | O=C(CCCCc1ccccc1)Nc1cccc(C2N(c3ccccc3)C(=O)CS2(=O)=O)c1 (configuration not stated) | 508
